# Experimental data: the kinase profiling compilation of Christmann-Franck et al. (2016)
# What was measured:
# Test in all cases: KINOMEscan competition binding
# Conditions in all cases: compound 10.0 µM
# [1] = tested on: ABL1 (human), P00519 [M351T]
# [2] = biological target: ABL2 (human) (UniProt P42684)
# [3] = biological target: AXL (human) (UniProt P30530)
# [4] = biological target: BMPR1B (human) (UniProt O00238)
# [5] = biological target: BRSK2 (human) (UniProt Q8IWQ3)
# [6] = biological target: CDK9 (human) (UniProt P50750)
# [7] = biological target: CIT (human) (UniProt O14578)
# [8] = biological target: CLK3 (human) (UniProt P49761)
# [9] = biological target: EPHA3 (human) (UniProt P29320)
# [10] = biological target: ERBB2 (human) (UniProt P04626)
# [11] = biological target: GAK (human) (UniProt O14976)
# [12] = biological target: HCK (human) (UniProt P08631)
# [13] = biological target: INSRR (human) (UniProt P14616)
# [14] = biological target: IRAK3 (human) (UniProt Q9Y616)
# [15] = biological target: MAP2K2 (human) (UniProt P36507)
# [16] = biological target: MAP4K4 (human) (UniProt O95819)
# [17] = biological target: MAPK9 (human) (UniProt P45984)
# [18] = biological target: MINK1 (human) (UniProt Q8N4C8)
# [19] = biological target: MYLK4 (human) (UniProt Q86YV6)
# [20] = biological target: NTRK3 (human) (UniProt Q16288)
# [21] = biological target: PAK7 (human) (UniProt Q9P286)
# [22] = biological target: PKN1 (human) (UniProt Q16512)
# [23] = biological target: PRKCE (human) (UniProt Q02156)
# [24] = biological target: PRKCQ (human) (UniProt Q04759)
# [25] = biological target: PRKD3 (human) (UniProt O94806)
# [26] = biological target: PRKG2 (human) (UniProt Q13237)
# [27] = biological target: PRKX (human) (UniProt P51817)
# [28] = biological target: SRC (human) (UniProt P12931)
# [29] = biological target: SRMS (human) (UniProt Q9H3Y6)
# [30] = biological target: SRPK2 (human) (UniProt P78362)
# [31] = biological target: STK17B (human) (UniProt O94768)
# [32] = biological target: STK24 (human) (UniProt Q9Y6E0)
# [33] = biological target: STK33 (human) (UniProt Q9BYT3)
# [34] = biological target: TEC (human) (UniProt P42680)
# [35] = biological target: WEE2 (human) (UniProt P0C1S8)
# [36] = biological target: YES1 (human) (UniProt P07947)
# [37] = biological target: CSNK1G2 (human) (UniProt P78368)
# [38] = biological target: MAP4K5 (human) (UniProt Q9Y4K4)
# [39] = biological target: RPS6KA3 KD1 (human) (UniProt P51812)
# [40] = biological target: BLK (human) (UniProt P51451)
# Chain of PKN1 (human) (Q16512 whole entry, looked up): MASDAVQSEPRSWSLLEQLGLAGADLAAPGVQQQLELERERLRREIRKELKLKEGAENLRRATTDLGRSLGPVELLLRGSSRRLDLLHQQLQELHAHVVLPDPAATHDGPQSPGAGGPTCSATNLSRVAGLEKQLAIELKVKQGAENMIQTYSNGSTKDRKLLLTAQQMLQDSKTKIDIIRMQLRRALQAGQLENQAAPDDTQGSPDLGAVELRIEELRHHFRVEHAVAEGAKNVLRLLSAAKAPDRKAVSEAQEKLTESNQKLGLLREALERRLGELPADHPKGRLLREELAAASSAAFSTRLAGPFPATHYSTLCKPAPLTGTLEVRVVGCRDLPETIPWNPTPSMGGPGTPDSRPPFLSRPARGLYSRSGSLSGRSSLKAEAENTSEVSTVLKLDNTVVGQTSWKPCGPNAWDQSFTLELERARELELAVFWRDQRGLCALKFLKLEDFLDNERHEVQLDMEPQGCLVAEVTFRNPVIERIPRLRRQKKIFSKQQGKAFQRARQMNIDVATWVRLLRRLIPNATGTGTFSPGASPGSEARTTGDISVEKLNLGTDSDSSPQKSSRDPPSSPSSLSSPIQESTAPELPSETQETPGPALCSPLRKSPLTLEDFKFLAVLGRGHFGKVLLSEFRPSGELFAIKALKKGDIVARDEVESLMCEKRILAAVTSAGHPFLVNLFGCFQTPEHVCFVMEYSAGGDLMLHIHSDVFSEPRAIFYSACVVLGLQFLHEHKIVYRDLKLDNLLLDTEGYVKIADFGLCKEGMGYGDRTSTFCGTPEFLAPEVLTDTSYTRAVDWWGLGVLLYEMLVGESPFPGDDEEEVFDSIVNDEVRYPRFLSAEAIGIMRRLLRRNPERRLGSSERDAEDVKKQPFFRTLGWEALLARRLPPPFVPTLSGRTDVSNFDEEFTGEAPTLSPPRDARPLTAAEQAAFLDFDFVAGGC
# Chain of GAK (human) (O14976 whole entry, looked up): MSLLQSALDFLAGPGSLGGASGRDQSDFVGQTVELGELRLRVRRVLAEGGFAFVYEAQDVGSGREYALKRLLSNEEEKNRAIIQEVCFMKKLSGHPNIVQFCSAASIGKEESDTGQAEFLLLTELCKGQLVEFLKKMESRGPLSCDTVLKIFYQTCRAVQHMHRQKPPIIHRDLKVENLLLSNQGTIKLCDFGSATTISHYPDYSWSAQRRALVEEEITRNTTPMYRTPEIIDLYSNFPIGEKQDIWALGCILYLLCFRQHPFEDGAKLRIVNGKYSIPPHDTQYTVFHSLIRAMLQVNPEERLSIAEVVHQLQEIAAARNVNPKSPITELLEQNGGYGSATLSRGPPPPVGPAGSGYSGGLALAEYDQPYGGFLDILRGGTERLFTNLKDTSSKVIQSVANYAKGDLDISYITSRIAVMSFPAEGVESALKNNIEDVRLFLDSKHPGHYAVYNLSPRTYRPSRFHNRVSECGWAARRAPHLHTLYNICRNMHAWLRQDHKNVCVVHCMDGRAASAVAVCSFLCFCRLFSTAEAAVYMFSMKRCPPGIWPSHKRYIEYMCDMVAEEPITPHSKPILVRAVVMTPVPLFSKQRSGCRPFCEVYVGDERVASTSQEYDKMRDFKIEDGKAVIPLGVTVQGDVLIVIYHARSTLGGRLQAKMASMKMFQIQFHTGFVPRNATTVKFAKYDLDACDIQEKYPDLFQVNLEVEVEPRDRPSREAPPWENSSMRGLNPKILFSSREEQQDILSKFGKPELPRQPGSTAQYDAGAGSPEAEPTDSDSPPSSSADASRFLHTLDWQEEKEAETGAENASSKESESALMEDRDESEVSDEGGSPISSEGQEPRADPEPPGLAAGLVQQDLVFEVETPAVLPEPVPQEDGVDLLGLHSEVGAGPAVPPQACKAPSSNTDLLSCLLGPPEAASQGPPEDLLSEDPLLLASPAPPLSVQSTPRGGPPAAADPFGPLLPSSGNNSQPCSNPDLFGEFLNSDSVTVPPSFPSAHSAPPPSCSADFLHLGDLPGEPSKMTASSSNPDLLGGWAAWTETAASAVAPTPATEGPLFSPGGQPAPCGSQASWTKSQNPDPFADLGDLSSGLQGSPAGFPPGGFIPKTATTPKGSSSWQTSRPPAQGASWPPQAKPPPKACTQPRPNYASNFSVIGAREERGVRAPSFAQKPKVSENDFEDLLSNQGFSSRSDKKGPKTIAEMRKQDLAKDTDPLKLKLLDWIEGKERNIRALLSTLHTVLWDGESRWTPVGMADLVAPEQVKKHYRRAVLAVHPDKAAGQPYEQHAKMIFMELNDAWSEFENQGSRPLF
# Chain of SRPK2 (human) (P78362 whole entry, looked up): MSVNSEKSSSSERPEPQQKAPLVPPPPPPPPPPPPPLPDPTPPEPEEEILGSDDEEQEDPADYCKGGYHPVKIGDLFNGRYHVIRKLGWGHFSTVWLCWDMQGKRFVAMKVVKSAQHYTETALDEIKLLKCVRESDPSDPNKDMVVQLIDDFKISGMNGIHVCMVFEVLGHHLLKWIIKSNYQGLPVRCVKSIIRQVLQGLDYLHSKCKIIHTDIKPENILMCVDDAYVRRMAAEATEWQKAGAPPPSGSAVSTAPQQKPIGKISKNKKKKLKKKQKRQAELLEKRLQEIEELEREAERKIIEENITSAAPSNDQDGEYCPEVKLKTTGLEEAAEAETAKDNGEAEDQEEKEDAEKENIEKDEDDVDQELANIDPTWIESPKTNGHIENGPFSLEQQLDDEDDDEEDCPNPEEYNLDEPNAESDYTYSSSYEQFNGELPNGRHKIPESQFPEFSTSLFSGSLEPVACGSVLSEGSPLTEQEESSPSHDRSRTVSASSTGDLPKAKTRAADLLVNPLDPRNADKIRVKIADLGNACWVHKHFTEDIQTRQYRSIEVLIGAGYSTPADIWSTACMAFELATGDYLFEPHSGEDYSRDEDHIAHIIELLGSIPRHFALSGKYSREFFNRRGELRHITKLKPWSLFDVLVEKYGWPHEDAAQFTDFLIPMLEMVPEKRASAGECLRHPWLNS
# Chain of NTRK3 (human) (Q16288 whole entry, looked up): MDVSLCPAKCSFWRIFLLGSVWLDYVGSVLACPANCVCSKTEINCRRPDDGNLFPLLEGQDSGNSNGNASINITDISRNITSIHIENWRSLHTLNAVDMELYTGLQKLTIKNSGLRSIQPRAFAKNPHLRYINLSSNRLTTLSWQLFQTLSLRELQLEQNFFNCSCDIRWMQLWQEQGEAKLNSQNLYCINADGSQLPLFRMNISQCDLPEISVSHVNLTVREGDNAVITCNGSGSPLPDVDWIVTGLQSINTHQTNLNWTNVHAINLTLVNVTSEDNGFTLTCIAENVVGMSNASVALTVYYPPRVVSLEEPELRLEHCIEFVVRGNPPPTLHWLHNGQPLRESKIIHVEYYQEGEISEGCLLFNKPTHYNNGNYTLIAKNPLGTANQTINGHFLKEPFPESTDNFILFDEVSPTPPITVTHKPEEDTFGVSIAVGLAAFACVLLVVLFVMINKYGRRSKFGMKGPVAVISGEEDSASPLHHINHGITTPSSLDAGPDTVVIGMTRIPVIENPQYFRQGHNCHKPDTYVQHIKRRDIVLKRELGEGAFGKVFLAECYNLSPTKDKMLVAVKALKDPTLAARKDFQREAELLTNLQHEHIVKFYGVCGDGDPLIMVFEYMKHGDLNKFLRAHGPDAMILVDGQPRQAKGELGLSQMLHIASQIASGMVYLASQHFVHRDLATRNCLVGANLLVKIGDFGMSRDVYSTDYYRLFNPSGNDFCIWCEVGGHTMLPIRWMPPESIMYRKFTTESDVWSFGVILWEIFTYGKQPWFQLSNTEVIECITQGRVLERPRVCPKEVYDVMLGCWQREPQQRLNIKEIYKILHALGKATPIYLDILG
# Chain of HCK (human) (P08631 whole entry, looked up): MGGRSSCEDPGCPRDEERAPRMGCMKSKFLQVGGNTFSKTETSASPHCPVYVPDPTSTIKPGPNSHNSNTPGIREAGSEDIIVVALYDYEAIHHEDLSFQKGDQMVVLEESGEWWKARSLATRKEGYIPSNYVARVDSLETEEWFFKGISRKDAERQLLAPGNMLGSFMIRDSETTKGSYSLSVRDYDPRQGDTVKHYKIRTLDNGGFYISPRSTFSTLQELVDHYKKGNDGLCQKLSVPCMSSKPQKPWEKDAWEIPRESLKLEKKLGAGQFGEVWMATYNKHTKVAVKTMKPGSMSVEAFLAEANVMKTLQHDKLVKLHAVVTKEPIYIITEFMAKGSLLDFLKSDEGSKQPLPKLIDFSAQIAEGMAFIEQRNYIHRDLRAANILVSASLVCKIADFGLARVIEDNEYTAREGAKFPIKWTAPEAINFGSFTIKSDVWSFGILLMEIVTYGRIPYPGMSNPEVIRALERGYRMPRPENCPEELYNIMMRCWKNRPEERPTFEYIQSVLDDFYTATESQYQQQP
# Chain of STK17B (human) (O94768 whole entry, looked up): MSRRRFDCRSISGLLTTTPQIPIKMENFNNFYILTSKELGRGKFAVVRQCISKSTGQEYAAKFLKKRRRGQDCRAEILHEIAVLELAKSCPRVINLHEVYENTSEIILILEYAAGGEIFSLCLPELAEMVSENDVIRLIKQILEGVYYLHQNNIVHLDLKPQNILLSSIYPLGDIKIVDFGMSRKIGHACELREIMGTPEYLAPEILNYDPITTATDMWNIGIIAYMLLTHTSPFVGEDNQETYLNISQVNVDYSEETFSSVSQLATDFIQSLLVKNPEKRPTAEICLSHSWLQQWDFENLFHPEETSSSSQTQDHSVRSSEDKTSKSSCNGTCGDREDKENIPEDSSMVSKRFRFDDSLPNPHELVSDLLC
# Chain of MYLK4 (human) (Q86YV6 whole entry, looked up): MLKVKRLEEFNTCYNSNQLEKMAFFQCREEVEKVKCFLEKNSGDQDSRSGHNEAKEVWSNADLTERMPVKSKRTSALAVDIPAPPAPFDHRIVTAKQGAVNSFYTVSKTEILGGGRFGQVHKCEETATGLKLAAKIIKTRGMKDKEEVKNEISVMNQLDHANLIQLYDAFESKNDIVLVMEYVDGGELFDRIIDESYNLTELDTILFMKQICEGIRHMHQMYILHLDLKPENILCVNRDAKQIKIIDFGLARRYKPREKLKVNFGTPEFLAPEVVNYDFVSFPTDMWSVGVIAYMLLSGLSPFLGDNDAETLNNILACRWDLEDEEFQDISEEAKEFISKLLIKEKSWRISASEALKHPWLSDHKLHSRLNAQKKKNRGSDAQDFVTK
SMILES,"kinase still bound, per cent of control [1] [%]","kinase still bound, per cent of control [2] [%]","kinase still bound, per cent of control [3] [%]","kinase still bound, per cent of control [4] [%]","kinase still bound, per cent of control [5] [%]","kinase still bound, per cent of control [7] [%]","kinase still bound, per cent of control [8] [%]","kinase still bound, per cent of control [9] [%]","kinase still bound, per cent of control [10] [%]","kinase still bound, per cent of control [11] [%]","kinase still bound, per cent of control [12] [%]","kinase still bound, per cent of control [13] [%]","kinase still bound, per cent of control [14] [%]","kinase still bound, per cent of control [15] [%]","kinase still bound, per cent of control [16] [%]","kinase still bound, per cent of control [17] [%]","kinase still bound, per cent of control [18] [%]","kinase still bound, per cent of control [19] [%]","kinase still bound, per cent of control [20] [%]","kinase still bound, per cent of control [21] [%]",also measured
CC[C@@H]1C(=O)N(C)c2cnc(Nc3ccc(C(=O)NC4CCN(C)CC4)cc3OC)nc2N1C1CCCC1,100,100,100,100,100,100,29,100,100,1.6,100,100,100,100,100,100,100,100,100,100,"kinase still bound, per cent of control [6]: 100%; kinase still bound, per cent of control [22]: 100%; kinase still bound, per cent of control [23]: 100%; kinase still bound, per cent of control [24]: 100%; kinase still bound, per cent of control [25]: 10%; kinase still bound, per cent of control [26]: 100%; kinase still bound, per cent of control [27]: 100%; kinase still bound, per cent of control [28]: 100%; kinase still bound, per cent of control [29]: 100%; kinase still bound, per cent of control [30]: 100%; kinase still bound, per cent of control [31]: 100%; kinase still bound, per cent of control [32]: 100%; kinase still bound, per cent of control [33]: 14%; kinase still bound, per cent of control [34]: 100%; kinase still bound, per cent of control [35]: 100%; kinase still bound, per cent of control [36]: 100%"
COc1cc(N2CCN(C)CC2)ccc1Nc1nc(N)c(C(=O)c2c(Cl)cccc2Cl)s1,84,82,100,90,87,94,2,82,100,73,100,100,90,93,76,100,61,100,100,63,"kinase still bound, per cent of control [37]: 100%; kinase still bound, per cent of control [38]: 78%; kinase still bound, per cent of control [22]: 100%; kinase still bound, per cent of control [23]: 68%; kinase still bound, per cent of control [24]: 54%; kinase still bound, per cent of control [25]: 70%; kinase still bound, per cent of control [26]: 74%; kinase still bound, per cent of control [27]: 93%; kinase still bound, per cent of control [39]: 66%; kinase still bound, per cent of control [28]: 100%; kinase still bound, per cent of control [29]: 71%; kinase still bound, per cent of control [30]: 100%; kinase still bound, per cent of control [31]: 73%; kinase still bound, per cent of control [32]: 77%; kinase still bound, per cent of control [33]: 83%; kinase still bound, per cent of control [34]: 69%; kinase still bound, per cent of control [35]: 100%"
C[C@@H](Oc1cc(-n2cnc3ccc(CN4CCN(C)CC4)cc32)sc1C(N)=O)c1ccccc1C(F)(F)F,93,90,41,100,52,87,91,100,68,100,100,100,38,79,64,100,29,78,100,60,"kinase still bound, per cent of control [40]: 100%; kinase still bound, per cent of control [6]: 93%; kinase still bound, per cent of control [37]: 97%; kinase still bound, per cent of control [38]: 68%; kinase still bound, per cent of control [22]: 46%; kinase still bound, per cent of control [23]: 3.9%; kinase still bound, per cent of control [24]: 47%; kinase still bound, per cent of control [25]: 12%; kinase still bound, per cent of control [26]: 95%; kinase still bound, per cent of control [27]: 100%; kinase still bound, per cent of control [39]: 0.5%; kinase still bound, per cent of control [28]: 100%; kinase still bound, per cent of control [29]: 74%; kinase still bound, per cent of control [30]: 59%; kinase still bound, per cent of control [31]: 100%; kinase still bound, per cent of control [32]: 81%; kinase still bound, per cent of control [33]: 75%; kinase still bound, per cent of control [34]: 91%; kinase still bound, per cent of control [35]: 83%"
Cn1c(=O)n(-c2ccc(C(C)(C)C#N)cc2)c2c3cc(-c4cnc5ccccc5c4)ccc3ncc21,100,100,100,100,100,100,100,100,100,100,100,100,100,100,100,100,100,100,100,100,"kinase still bound, per cent of control [40]: 100%; kinase still bound, per cent of control [6]: 100%; kinase still bound, per cent of control [37]: 100%; kinase still bound, per cent of control [38]: 100%; kinase still bound, per cent of control [22]: 100%; kinase still bound, per cent of control [23]: 100%; kinase still bound, per cent of control [24]: 100%; kinase still bound, per cent of control [25]: 100%; kinase still bound, per cent of control [26]: 100%; kinase still bound, per cent of control [27]: 100%; kinase still bound, per cent of control [28]: 100%; kinase still bound, per cent of control [29]: 100%; kinase still bound, per cent of control [30]: 100%; kinase still bound, per cent of control [31]: 100%; kinase still bound, per cent of control [32]: 100%; kinase still bound, per cent of control [33]: 100%; kinase still bound, per cent of control [34]: 100%; kinase still bound, per cent of control [35]: 100%; kinase still bound, per cent of control [36]: 100%"
